This note sets out measurements from US5939322A, “Human steroid receptor” (Merck & Co., Inc., priority 1996, dated 1999).

Entries after “also recorded” stand apart in the source; their conditions may differ.

One data set concerns GR/NER. As to the kind of experiment: Ligand dependent transcription assay, GR/NER chimeric receptor with MMTV-luciferase reporter in CV1 cells. The class given is cell-based, African green monkey. The settings on record: for Fold of Stimulation GR/NER, Control: no dopamine. (In general: Reporter assays use an easily measured gene product as a stand-in for the process of interest.)

The subject of data set [1] is SCH 23390 Induced Catalepsy. As to the kind of experiment: SCH 23390 (dopamine D1 antagonist) induced catalepsy, bar method. The class given is in vivo. To be noted: rats; carrier pretreatment, 24 h later SCH23390 0.5 mg/kg. The protocol: Rats were pretreated with 0.4 mg/kg TOFA or with carrier (S.C.). Twenty-four hours later, the rats were challenged with 0.5 mg/kg SCH23390, a Dopamine D1 antagonist, and the duration of catalepsy was monitored.
Catalepsy was determined by a modification of the Bar method (Undie and Friedman, 1988). A steel bar, 1.1 cm in diameter and 50 cm long, was suspended at a height of 10 cm above the working surface. Three sides of the bench around the bar were walled off with brown cardboard, and the linings on the bench surface were selected to be of the same color with the cardboard walls. The animal's hind limbs were freely placed on the bench, the tail laid out to the back, and the forelimbs placed over the bar. The length of time a rat stayed up on the bar was noted up to a preset cut-off point of 120 s. The time was counted off upon observing any of the following actions: (1) the animal came off, placing its two forepaws on the bench, (2) the animal climbed onto or over the bar with both hind limbs, (3) the animal initiated locomotion along or around the bar. Subsequently, time readings were translated into scores by awarding a score of 1 for each successfully completed 5 s on the bar. […]
Catalepsy scores were analyzed by computer in accordance with the statistical procedures outlined by Winer, B. J.: Statistical principles in experimental design. […]

In a further data set the test system is GR/NUC. As to the kind of experiment: Ligand dependent transcription assay, GR/NUC chimeric receptor with MMTV-luciferase reporter. The settings on record: Table 1. The format is cell-based, human. The protocol: (§1) Similar hybrid receptors GR/NER, GR/NUC and GR/PPAR, in identical expression plasmid backgrounds were prepared essentially as described for the construction of the GR/mPPAR and GR/NUC chimeric receptors in Schmidt et al., "Identification of a new member of the steroid hormone receptor superfamily that is activated by a peroxisome proliferator and fatty acids," Mol. Endocrinol., 6(10):1634-41, 1992, and in Boie et al., "Enantioselective activation of the peroxisome proliferator-activated receptor", J. Biol. Chem. 269(8):5530-4, 1993.
(§2) Briefly, the amino terminal portion of the mouse glucocorticoid receptor (mGR), that includes the DNA binding domain was fused to the putative ligand binding domains of the nuclear receptor NER, hNUC-I (Schmidt et al., 1992), mPPAR (Issenmann and Green, 1990) to form the respective chimeric receptors GR/NER, GR/NUC and GR/PPAR. The GR/NER chimeric receptor was constructed as described for the GR/NUC and GR/PPAR hybrid receptors (Schmidt et al., 1992; Boie et al). The cDNA sequences coding for amino acids Arg^155 and Glu^156 of the NER receptor were converted to the Xho I restriction site, that was later used for the ligation to the GR cDNA sequences that coded for the DNA binding domain. Thus, converting amino acid residues Arg^155 and Glu^156 of NER receptor to amino acid residues Ser^155 and His^156.

Data set [2] relates to GR/PPAR. Nature of the data set: Ligand dependent transcription assay, GR/PPAR chimeric receptor with MMTV-luciferase reporter in COS cells. To be noted: Table 1. The class given is cell-based, African green monkey.
Data set [3] has as its system GR/PPAR. The data set is described as above. The class given is cell-based, African green monkey. The method, then: as §1, §2
The ligand transcription assay mediated by GR/PPAR in COS cells was performed as described in Example 4. The cells were treated with TOFA and Cerulenin at 0.1, 1, 10 and 100 μM.

For data set [4], the system named is MMTV-luciferase reporter gene. Nature of the data set: Luciferase expression in cells transfected only with the MMTV-luciferase reporter gene. The format is cell-based.
Experimental: (§3) Transient transfection of COS and CV1 cells was performed as described (Schmidt 1992). Cells were plated (1.5×10^5 in 1 mL) into 12 well dishes in phenol red-free medium supplemented with activated charcoal treated fetal calf serum. The next day 0.12 mL of DNA 10 μg/ml (5 μg receptor DNA and 5 μg reporter plasmid), as a calcium phosphate precipitate, was added to the cells. Ligands were added to the cells 30 minutes after transfection. The next day (18 hours), the cells were washed and fresh ligands added. Twenty-four hours later, cell extracts were prepared and assayed for luciferase enzyme activity using the luciferase assay system (Promega Madison, Wis.). Each transfection was performed in triplicate and the luciferase activity of each sample measured in duplicate using the AutoClinilumat (Berthold Nashua, New Hampshire).
In another data set the test system is promoter of SV40. As to the kind of experiment: Luciferase expression from reporter gene under control of the SV40 promoter. The format is cell-based.
In the next data set the test system is PC12 cells. As to the kind of experiment: Neurite differentiation of PC12 cells. The class given is cell-based. The settings on record: TOFA alone, without NGF (data not shown). The protocol: To further study the influence of TOFA on the nervous system, we tested the effect of TOFA on the differentiation of PC12 cells. PC12 cells were plated at a density of approximately 100-200/mm^2 on collagen coated plates or dishes in RPMI medium supplemented with 10% horse serum, 5% fetal calf serum, […] streptomycin, 50 U/mL penicillin in a water saturated atmosphere of 95% air and 5% CO2, at 37° C. overnight. […]
At different time points during the treatment, cells were photographed or fixed with 10% formalin. Morphology was examined after four days of treatment with TOFA or vehicle (DMSO). The number of cells bearing neurites and average length of neurites were determined with the aid of the Bioquant imaging system. […] However, as depicted in Table 6 below, NGF alone induced a 15% increase in the number of cells bearing neurites and these outgrowths reached a mean length of 20 μm . Treatment with NGF and TOFA increased the percentage of cells bearing neurites to 78%. Maximal neurite generation is observed at a concentration of 10 μM TOFA.
[…] At least eighty cells from eight wells were analyzed in each group. The results are shown as the mean±SEM. ^a p<0.01, versus vehicle by Dunnetts test.

The subject of data set [5] is Haloperidol Induced Catalepsy. As to the kind of experiment: Haloperidol (dopamine D2 antagonist) induced catalepsy, bar method. The class given is in vivo. To be noted: rats; TOFA 0.4 mg/kg S.C. 24 h before Haloperidol 0.1 mg/kg.

Experimental for GR/NER: as §3

Take `CN1CCc2cc(Cl)c(O)cc2C(c2ccccc2)C1` (centres unmarked) [SCH-23390, 8-chloro-2,3,4,5-tetrahydro-3-methyl-5-phenyl-1H-3-benzazepin-7-ol hemimaleate]: the “Fold of Stimulation GR/NER, Dopamine (50 μM)” value with GR/NER (SCH-23390 0.1 μM with dopamine 50 μM) worked out at 0.59 ± 0.06 fold; in the data set on GR/NER (SCH-23390 1.0 μM with dopamine 50 μM), 0.55 ± 0.09 fold; in the data set on GR/NER (SCH-23390 10.0 μM with dopamine 50 μM) it was 0.83 ± 0.12 fold; with GR/NER (SCH-23390 100 μM with dopamine 50 μM), 2.61 ± 0.86 fold. The “Fold of Stimulation GR/NER, Control” value in the data set with GR/NER (SCH-23390 0.1 μM) came to 1.32 ± 0.15 fold; in the data set on GR/NER (SCH-23390 1.0 μM) it was 1.22 ± 0.11 fold; in the data set on GR/NER (SCH-23390 10.0 μM) it was 1.64 ± 0.38 fold; with GR/NER (SCH-23390 100 μM) it was 2.38 ± 0.19 fold. The “Catalepsy Duration” value in data set [1] amounted to 3.1 ± 1.3 s.

On to `CCCCCCCC/C=C\CCCCCCCC(=O)O` [Oleic Acid, oleic acid], for which the “Fold of stimulation GR/NUC” value in the data set on GR/NUC (150 μM) is listed as 3.42 ± 0.28 fold. Besides, the “Fold of Stimulation GR/PPAR” value with GR/PPAR [2] (50 μM) came to 2.87 ± 0.2 fold; in the data set on GR/PPAR [2] (300 μM), 14.69 ± 0.06 fold.

With `C/C=C/C/C=C/CCC(=O)[C@H]1O[C@H]1C(N)=O` [Cerulenin], the “Fold of Stimulation GR/PPAR” value in the data set on GR/PPAR [3] (0.1 μM, Table 2, 1440 min) is 1.03 ± 0.12 fold; in the data set on GR/PPAR [3] (1.0 μM, Table 2), 1.13 ± 0.05 fold; in the data set with GR/PPAR [3] (10.0 μM, Table 2, 1440 min) it was 0.58 ± 0.11 fold.

Regarding `CCCCCCCCCCCCCCOc1ccc(C(=O)O)o1` [TOFA, 5-(tetradecyloxy)-2-furan carboxylic acid], the “Fold of stimulation GR/NUC” value in the data set with GR/NUC (2 μM) amounted to 1.95 ± 0.14 fold; in the data set on GR/NUC (10 μM) it was 2.85 ± 0.20 fold; in the data set with GR/NUC (50 μM) it was 3.19 ± 0.20 fold. In addition, the “Fold of Stimulation GR/PPAR” value was determined as 1.04 ± 0.14 fold in the data set with GR/PPAR [3] (0.1 μM, Table 2, 1440 min); 2.38 ± 0.16 fold with GR/PPAR [3] (1.0 μM, Table 2); 4.43 ± 0.23 fold with GR/PPAR [3] (10.0 μM, Table 2, 1440 min); 4.10 ± 0.52 fold in the data set on GR/PPAR [3] (100 μM, Table 2, 1440 min); 2.89 ± 0.13 fold in the data set with GR/PPAR [2] (2 μM); 4.08 ± 0.10 fold with GR/PPAR [2] (10 μM). Further, in the data set with GR/PPAR [2] (20 μM), the “Fold of Stimulation GR/PPAR” value is listed as 5.75 ± 0.14 fold. The “stimulation of luciferase expression, MMTV-luciferase reporter gene only” value in data set [4] was “did not stimulate”. Besides, the “stimulation of luciferase expression, reporter under control of the promoter of SV40” value with promoter of SV40 is given as “did not stimulate”. For the same compound, in the data set on PC12 cells, the neurite outgrowth result is “did not induce neurite outgrowth”. The “effect of TOFA pretreatment on Haloperidol-induced catalepsy” value in data set [5] was “did not significantly affect; also recorded: unaffected”.
